# Results: ChEMBL document CHEMBL1124209, “Phosphonoformate and phosphonoacetate derivatives of 5-substituted 2'-deoxyuridines: synthesis and antiviral activity” (1988)
# Experiments:
# Assay type in all cases: functional
# Human alphaherpesvirus 1 [1] = experiment: Minimum inhibitory concentration causing 25% inhibition of cytopathic effect induced by Herpes simplex virus-1 (K979) in HEp-2 cells
# Human alphaherpesvirus 1 [2] = experiment: Minimum inhibitory concentration causing 25% inhibition of cytopathic effect induced by herpes simplex virus (HSV)-1 (K979) in vero cells.
# Human alphaherpesvirus 1 [3] = experiment: Minimum inhibitory concentration causing 25% inhibition of cytopathic effect induced by Herpes simplex virus-1 (Brand) in vero cells
# Human alphaherpesvirus 1 [4] = experiment: Minimum inhibitory concentration causing 25% inhibition cytopathic effect induced by Herpes simplex virus-1 (Brand) in HEp-2 cells
# Human alphaherpesvirus 1 [5] = experiment: Mean survival time in HSV-1 infected mice, after intraperitoneal administration of 0.5 mg/kg of compound
# Human alphaherpesvirus 1 [6] = experiment: Mean survival time in HSV-1 infected mice, after intraperitoneal administration of 1 mg/kg of compound
# Human alphaherpesvirus 1 [7] = experiment: Mean survival time in HSV-1 infected mice, after intraperitoneal administration of 5 mg/kg of compound
# Human alphaherpesvirus 1 [8] = experiment: Mean survival time in HSV-1 infected mice, after peroral administration of 10 mg/kg of compound; conditions: route oral
# Human alphaherpesvirus 1 [9] = experiment: Mean survival time in HSV-1 infected mice, after peroral administration of 1 mg/kg of compound; conditions: route oral
# Human alphaherpesvirus 1 [10] = experiment: Mean survival time in HSV-1 infected mice, after peroral administration of 5 mg/kg of compound; conditions: route oral
# Human alphaherpesvirus 1 [11] = experiment: Cumulative mortality in percent of HSV-1 infected mice, after intraperitoneal administration of 0.5 mg/kg of compound
# Human alphaherpesvirus 1 [12] = experiment: Cumulative mortality in percent of HSV-1 infected mice, after intraperitoneal administration of 1 mg/kg of compound
# Human alphaherpesvirus 1 [13] = experiment: Cumulative mortality in percent of HSV-1 infected mice, after intraperitoneal administration of 5 mg/kg of compound
# Human alphaherpesvirus 1 [14] = experiment: Cumulative mortality in percent of HSV-1 infected mice, after peroral administration of 1 mg/kg of compound; conditions: route oral
# Human alphaherpesvirus 1 [15] = experiment: Cumulative mortality in percent of HSV-1 infected mice, after peroral administration of 5 mg/kg of compound; conditions: route oral
# Human alphaherpesvirus 1 [16] = experiment: Cumulative mortality in percent of HSV-1 infected mice, after peroral administration of 10 mg/kg of compound; conditions: route oral
# Oryctolagus cuniculus = species on record: Oryctolagus cuniculus; experiment: Minimum cytotoxic concentration causing toxic effects on uninfected cells in rabbit
# Human alphaherpesvirus 2 [17] = experiment: Minimum inhibitory concentration causing 25% inhibition cytopathic effect induced by Herpes simplex virus(HSV) -2 (thymidine kinase deficient) in vero cells
# Human alphaherpesvirus 1 [18] = experiment: Minimum inhibitory concentration causing 25% inhibition of cytopathic effect induced by Herpes simplex virus(HSV) -1 (thymidine kinase deficient) in HEp-2 cells
# Human alphaherpesvirus 1 [19] = experiment: Minimum inhibitory concentration causing 25% inhibition of cytopathic effect induced by Herpes simplex virus(HSV) -1 (thymidine kinase deficient) in vero cells
# Human alphaherpesvirus 2 [20] = experiment: Minimum inhibitory concentration causing 25% inhibition of cytopathic effect induced by Herpes simplex virus(HSV) -2 (thymidine kinase deficient) in HEp-2 cells
# Mus musculus [21] = experiment: Cumulative lesions in HSV-1 infected mice, after administration of 0.1 % of compound intracutaneously
# Mus musculus [22] = experiment: Mean duration of lesions in HSV-1 infected mice, after administration of 0.1 % of compound intracutaneously
# Human alphaherpesvirus 2 [23] = experiment: Minimum inhibitory concentration causing 25% inhibition of cytopathic effect induced by Herpes simplex virus(HSV) -2 (thymidine kinase deficient) in vero cells
Structure (SMILES),MIC (Human alphaherpesvirus 1 [1]) [µM],MIC (Human alphaherpesvirus 1 [2]) [µM],MIC (Human alphaherpesvirus 1 [3]) [µM],MIC (Human alphaherpesvirus 1 [4]) [µM],MST (Human alphaherpesvirus 1 [5]) [days],MST (Human alphaherpesvirus 1 [6]) [days],MST (Human alphaherpesvirus 1 [7]) [days],MST (Human alphaherpesvirus 1 [8]) [days],MST (Human alphaherpesvirus 1 [9]) [days],MST (Human alphaherpesvirus 1 [10]) [days],CMP (Human alphaherpesvirus 1 [11]),CMP (Human alphaherpesvirus 1 [12]),CMP (Human alphaherpesvirus 1 [13]),CMP (Human alphaherpesvirus 1 [14]),CMP (Human alphaherpesvirus 1 [15]),CMP (Human alphaherpesvirus 1 [16]),MTC (Oryctolagus cuniculus),MIC (Human alphaherpesvirus 1 [18]) [µM],MIC (Human alphaherpesvirus 1 [19]) [µM],MIC (Human alphaherpesvirus 2 [20]) [µM],further results
CCOC(=O)CP(=O)(O)OC[C@H]1O[C@@H](n2cc(CCCl)c(=O)[nH]c2=O)C[C@@H]1O,> 227,> 227,> 227,> 227,12.2,11.3,15.5,15.9,11.9,13.6,75,83,42,83,58,42,749 µM,,,,
CCOC(=O)CP(=O)(OC)OC[C@H]1O[C@@H](n2ccc(=O)[nH]c2=O)C[C@@H]1O (stereo not given in full),> 255,> 255,> 255,> 255,,,,,,,,,,,,,>=842 uM,,,,
COP(=O)(CC(=O)OC[C@H]1O[C@@H](n2cc(C)c(=O)[nH]c2=O)C[C@@H]1O)OC,> 255,> 255,> 255,> 255,,,,,,,,,,,,,>=842 uM,,,,
COP(=O)(CC(=O)OC[C@H]1O[C@@H](n2cc(CCCl)c(=O)[nH]c2=O)C[C@@H]1O)OC,> 227,> 227,6.8,6.8,13.3,13,19.2,12.2,13.5,11.2,67,75,8,58,83,75,749 µM,> 227,227,> 227,MIC (Human alphaherpesvirus 2 [17]): > 227 µM
CCOC(=O)P(=O)(O)O[C@H]1C[C@H](n2cc(CCCl)c(=O)[nH]c2=O)O[C@@H]1CO,> 234,> 234,234,> 234,11.5,15.6,18.9,11.8,11.3,11.9,83,42,8,83,75,75,>=773 uM,,,,lesions (Mus musculus [21]): 90; MDL (Mus musculus [22]): 9.7 days
COC(=O)P(=O)(O)O[C@H]1C[C@H](n2cc(CCCl)c(=O)[nH]c2=O)O[C@@H]1CO,> 242,> 242,> 242,> 242,,,,,,,,,,,,,>=800 uM,,,,
O=C(OCc1ccccc1)P(=O)(O)OC[C@H]1O[C@@H](n2cc(CCCl)c(=O)[nH]c2=O)C[C@@H]1O,> 205,> 205,20.5,20.5,13.8,16.3,19.3,16.8,12.7,14.3,67,33,8,67,50,33,675 µM,> 205,20.5,> 205,MIC (Human alphaherpesvirus 2 [23]): 205 µM; lesions (Mus musculus [21]): 100; MDL (Mus musculus [22]): 8.1 days
CCOC(=O)P(=O)(O)OC[C@H]1O[C@@H](n2cc(CCCl)c(=O)[nH]c2=O)C[C@@H]1O,234,> 234,23.4,23.4,13.8,16.5,20,15.3,10.1,11.9,58,33,0,92,75,50,>=773 uM,> 234,70.3,> 234,MIC (Human alphaherpesvirus 2 [23]): 234 µM; lesions (Mus musculus [21]): 80; MDL (Mus musculus [22]): 6.7 days
O=C(O)CP(=O)(O)OC[C@H]1O[C@@H](n2cc(CCCl)c(=O)[nH]c2=O)C[C@@H]1O,69.6,232,2.3,2.3,14.2,14.1,17.3,15.3,8.6,11.2,50,58,25,100,92,50,766 µM,23.2,23.2,232,MIC (Human alphaherpesvirus 2 [17]): > 232 µM; lesions (Mus musculus [21]): 60; MDL (Mus musculus [22]): 5.3 days
CC(C)(C)OC(=O)CP(=O)(O)OC[C@H]1O[C@@H](n2cc(CCCl)c(=O)[nH]c2=O)C[C@@H]1O,> 213,> 213,> 213,> 213,12.9,12.8,15.4,13.3,11.5,11.3,67,67,50,83,83,58,>=704 uM,,,,
COC(=O)P(=O)(O)OC[C@H]1O[C@@H](n2cc(CCCl)c(=O)[nH]c2=O)C[C@@H]1O,242,> 242,24.2,24.2,11.8,14.1,16.3,13.7,12.6,12.7,75,58,33,75,67,75,>=800 uM,> 242,242,> 242,MIC (Human alphaherpesvirus 2 [23]): > 242 µM
CCOC(=O)CP(=O)(O)O[C@H]1C[C@H](n2cc(CCCl)c(=O)[nH]c2=O)O[C@@H]1CO,> 227,> 227,> 227,> 227,,,,,,,,,,,,,749 µM,,,,lesions (Mus musculus [21]): 80; MDL (Mus musculus [22]): 9.4 days
COP(=O)(CC(=O)O[C@H]1C[C@H](n2cc(CCCl)c(=O)[nH]c2=O)O[C@@H]1CO)OC,6.8,22.7,0.7,68.1,,,,,,,,,,,,,227 µM,> 227,227,> 227,MIC (Human alphaherpesvirus 2 [23]): 227 µM
CCOC(=O)P(=O)(Nc1ccccc1)OC[C@H]1O[C@@H](n2cc(CCCl)c(=O)[nH]c2=O)C[C@@H]1O (stereo not given in full),59.8,> 199,2,2,13.1,13.9,18,17.8,11.4,15.4,75,67,25,100,50,25,658 µM,> 199,59.8,> 199,MIC (Human alphaherpesvirus 2 [23]): 199 µM
O=C(CP(=O)(O)O)O[C@H]1C[C@H](n2cc(CCCl)c(=O)[nH]c2=O)O[C@@H]1CO,72.7,242,24.2,72.7,,,,,,,,,,,,,800 µM,> 242,242,> 242,MIC (Human alphaherpesvirus 2 [17]): > 242 µM
CCOC(=O)CP(=O)(OC)OC[C@H]1O[C@@H](n2cc(C)c(=O)[nH]c2=O)C[C@@H]1O (stereo not given in full),> 246,> 246,> 246,> 246,,,,,,,,,,,,,>=812 uM,,,,
CCOC(=O)P(=O)(OC)OC[C@H]1O[C@@H](n2cc(C)c(=O)[nH]c2=O)C[C@@H]1O (stereo not given in full),> 255,> 255,> 255,> 255,,,,,,,,,,,,,>=842 uM,,,,
CCOC(=O)P(=O)(OC)OC[C@H]1O[C@@H](n2ccc(=O)[nH]c2=O)C[C@@H]1O (stereo not given in full),> 264,> 264,> 264,> 264,,,,,,,,,,,,,>=872 uM,,,,
